≈ marks a conversion by molar mass, not a printed value.
How the values were obtained:
Assay type in all cases: cell-based
[1] = system: Streptococcus pneumoniae 030SJ5; experiment: M.I.C., dilutions in liquid medium; settings: 24 hours at 37° C., read-out: minimal inhibitory concentration (M.I.C.)
Description: (§1) Method of dilutions in liquid medium A series of tubes was prepared into which an equal quantity of sterile nutritive medium was distributed. Increasing quantities of the product to be studied were distributed into each tube and then each tube was seeded with a bacterial strain. After incubation for twenty-four hours in an oven at 37° C., the growth inhibition was evaluated by trans-illumination which allowed the minimal inhibitory concentrations (M.I.C.), expressed in micrograms/cm^3, to be determined.

[2] = system: Streptococcus sp group G 02G0GR5; experiment: M.I.C., dilutions in liquid medium; settings: GROUPG02G0GR5, 24 hours at 37° C., read-out: minimal inhibitory concentration (M.I.C.)
Description: as §1

[3] = system: Staphylococcus aureus 011UC4; experiment: M.I.C., dilutions in liquid medium; settings: 24 hours at 37° C., read-out: minimal inhibitory concentration (M.I.C.)
Description: as §1

[4] = system: Streptococcus faecalis group D 02D2UC1; experiment: M.I.C., dilutions in liquid medium; settings: Enterococcus faecalis, GROUPD02D2UC1, 24 hours at 37° C., read-out: minimal inhibitory concentration (M.I.C.)
Description: as §1

[5] = system: Streptococcus pyogenes group A 02A1UC1; experiment: M.I.C., dilutions in liquid medium; settings: GROUPA02A1UC1, 24 hours at 37° C., read-out: minimal inhibitory concentration (M.I.C.)
Description: as §1

[6] = system: Streptococcus faecium group D 02D3HT1; experiment: M.I.C., dilutions in liquid medium; settings: Enterococcus faecium, GROUPD02D3HT1, 24 hours at 37° C., read-out: minimal inhibitory concentration (M.I.C.)
Description: as §1

[7] = system: Streptococcus agalactiae group B 02B1HT1; experiment: M.I.C., dilutions in liquid medium; settings: GROUPB02B1HT1, 24 hours at 37° C., read-out: minimal inhibitory concentration (M.I.C.)
Description: as §1

[8] = system: Streptococcus mitis 02mitGR16I; experiment: M.I.C., dilutions in liquid medium; settings: 24 hours at 37° C., read-out: minimal inhibitory concentration (M.I.C.)
Description: as §1

[9] = system: Staphylococcus aureus 011G025I; experiment: M.I.C., dilutions in liquid medium; settings: 24 hours at 37° C., read-out: minimal inhibitory concentration (M.I.C.)
Description: as §1

[10] = system: Streptococcus agalactiae group B 02B1SJ1; experiment: M.I.C., dilutions in liquid medium; settings: GROUPB02B1SJ1, 24 hours at 37° C., read-out: minimal inhibitory concentration (M.I.C.)
Description: as §1

[11] = system: Streptococcus mitis 02mitCB1; experiment: M.I.C., dilutions in liquid medium; settings: 24 hours at 37° C., read-out: minimal inhibitory concentration (M.I.C.)
Description: as §1

[12] = system: Staphylococcus epidermidis 012GO11I; experiment: M.I.C., dilutions in liquid medium; settings: 24 hours at 37° C., read-out: minimal inhibitory concentration (M.I.C.)
Description: as §1

[13] = system: Haemophilus Influenzae 351HT3, 351CB12, 351CA1 and 351GR6; experiment: activity on gram (-) bacterial strains
Description: as §1

## CC[C@H]1OC(=O)C(C)(F)C(=O)[C@H](C)[C@@H](O[C@@H]2O[C@H](C)C[C@H](N(C)C)[C@H]2O)[C@](C)(OC)C[C@@H](C)C(=O)[C@H](C)[C@H]2N(CCCCn3cnc4cccnc43)C(=O)O[C@]12C (single isomer, unassigned) [Example 1, 11,12-dideoxy-3-de[(2,6-dideoxy-3-C-methyl-3-0-methyl-α-L-ribohexopyranosyl)-oxy]-2-fluoro-6-0-methyl-3-oxo-12,11-(oxycarbonyl( (4-(3H-imidazo(4,5-b)pyridin-3-yl)-butyl)-imino))-erythromycin]
[1]
  MIC: 0.02 µg/mL (≈ 0.0249 µM)
[2]
  MIC: 0.02 µg/mL (≈ 0.0249 µM)
[3]
  MIC: 0.04 µg/mL (≈ 0.0498 µM)
[4]
  MIC: 0.02 µg/mL (≈ 0.0249 µM)
[5]
  MIC: ≤ 0.02 µg/mL
[6]
  MIC: ≤ 0.02 µg/mL
[7]
  MIC: ≤ 0.02 µg/mL
[8]
  MIC: ≤ 0.02 µg/mL
[9]
  MIC: 0.08 µg/mL (≈ 0.0995 µM)
[10]
  MIC: 0.08 µg/mL (≈ 0.0995 µM)
[11]
  MIC: ≤ 0.02 µg/mL
[12]
  MIC: 0.15 µg/mL (≈ 0.187 µM)
[13]
  activity on gram (-) bacterial strains: very useful activity
